The molecules below were run against T1, Recombinant human TPH1 (MBP tagged) (Homo sapiens, UniProt P17752) (assay: TPH1 in vitro inhibition assay (kinetic fluorescence)). Conditions: TPH1 Range (TPH1 inhibition IC50).
T1 construct: cloning full length human TPH1 cDNA in to a bacterial pMAL-c5E expression vector; made in house; host or cells: E. coli BL21 (DE3)
T1 sequence (P17752 1-444): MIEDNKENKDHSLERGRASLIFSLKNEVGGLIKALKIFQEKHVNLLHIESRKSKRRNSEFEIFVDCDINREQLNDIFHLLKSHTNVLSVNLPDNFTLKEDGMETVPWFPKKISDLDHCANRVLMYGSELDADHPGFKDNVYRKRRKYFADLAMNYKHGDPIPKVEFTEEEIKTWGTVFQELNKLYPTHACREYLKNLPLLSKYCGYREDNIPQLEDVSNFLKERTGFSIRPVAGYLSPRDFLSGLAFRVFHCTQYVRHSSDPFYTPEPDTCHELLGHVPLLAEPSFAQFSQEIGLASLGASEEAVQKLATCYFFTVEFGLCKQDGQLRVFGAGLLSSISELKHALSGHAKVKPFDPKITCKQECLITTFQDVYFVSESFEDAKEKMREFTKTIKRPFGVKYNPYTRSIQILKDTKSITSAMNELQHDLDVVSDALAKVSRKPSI
Format: biochemical
Summary of the method: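 Final mix: 15 nM MBP-TPH1, 30 μM Trp, 36 μM 6-methyltetrahydropterin, 25 μM ferrous ammonium sulfate, 50 mM MES pH 7.1, 1% DMSO, room temperature.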
Molecule `Nc1nc(O[C@H](c2ccc(Cl)cc2-c2cccnc2)C(F)(F)F)cc(N2CCC3(CC2)CN[C@H](C(=O)O)C3)n1` [Example 34bo, (S)-8-(2-amino-6-((R)-1-(4-chloro-2-(pyridin-3-yl)phenyl)-2,2,2-trifluoroethoxy)pyrimidin-4-yl)-2,8-diazaspiro[4.5]decane-3-carboxylic acid] has an IC50 of 50 to 300 nM.
`CC(C)(C)c1cccc(-c2cc(Cl)ccc2[C@@H](Oc2cc(N3CCC4(CC3)CN[C@H](C(=O)O)C4)nc(N)n2)C(F)(F)F)c1` [Example 34bq, (S)-8-(2-amino-6-((R)-1-(3′-(tert-butyl)-5-chloro-[1,1′-biphenyl]-2-yl)-2,2,2-trifluoroethoxy)pyrimidin-4-yl)-2,8-diazaspiro[4.5]decane-3-carboxylic acid] showed an IC50 of 50 to 300 nM.
In the case of `Nc1nc(O[C@H](c2ccc(Cl)cc2-c2ccc(Cl)cc2)C(F)(F)F)cc(N2CCC3(CC2)CN[C@H](C(=O)O)C3)n1` [Example 34bw, (S)-8-(2-amino-6-((R)-1-(4′,5-dichloro-[1,1′-biphenyl]-2-yl)-2,2,2-trifluoroethoxy)pyrimidin-4-yl)-2,8-diazaspiro[4.5]decane-3-carboxylic acid], the IC50 is reported as 50 to 300 nM.
Work on `Nc1nc(O[C@H](c2ccc(Cl)cc2-c2ccccc2)C(F)(F)F)cc(N2CCC3(CC2)CN[C@H](C(=O)O)C3)n1` [Example 34c, (S)-8-(2-amino-6-((R)-1-(5-chloro-[1,1′-biphenyl]-2-yl)-2,2,2-trifluoroethoxy)pyrimidin-4-yl)-2,8-diazaspiro[4.5]decane-3-carboxylic acid] yielded an IC50 of 50 to 300 nM.

Same assay, conditions: read-out: TPH1 Range (TPH1 inhibition IC50)
`CC(C)c1cccc(-c2cc(Cl)ccc2[C@@H](Oc2cc(N3CCC4(CC3)CN[C@H](C(=O)O)C4)nc(N)n2)C(F)(F)F)c1` [Example 34bi, (S)-8-(2-amino-6-((R)-1-(5-chloro-3′-isopropyl-[1,1′-biphenyl]-2-yl)-2,2,2-trifluoroethoxy)pyrimidin-4-yl)-2,8-diazaspiro[4.5]decane-3-carboxylic acid] was tested, and the IC50 was < 50 nM.
With `Nc1nc(O[C@H](c2ccc(Cl)cc2-c2cc(Cl)cc(Cl)c2)C(F)(F)F)cc(N2CCC3(CC2)CN[C@H](C(=O)O)C3)n1` [Example 34bj, (S)-8-(2-amino-6-((R)-2,2,2-trifluoro-1-(3′,5,5′-trichloro-[1,1′-biphenyl]-2-yl)ethoxy)pyrimidin-4-yl)-2,8-diazaspiro[4.5]decane-3-carboxylic acid] the IC50 was < 50 nM.
Work on `Nc1nc(O[C@H](c2ccc(Cl)cc2-c2ccc(F)c(C(F)(F)F)c2)C(F)(F)F)cc(N2CCC3(CC2)CN[C@H](C(=O)O)C3)n1` [Example 34bk, (S)-8-(2-amino-6-((R)-1-(5-chloro-4′-fluoro-3′-(trifluoromethyl)-[1,1′-biphenyl]-2-yl)-2,2,2-trifluoroethoxy)pyrimidin-4-yl)-2,8-diazaspiro[4.5]decane-3-carboxylic acid] yielded an IC50 of 50 to 300 nM.
With `CC(C)Oc1cc(F)cc(-c2cc(Cl)ccc2[C@@H](Oc2cc(N3CCC4(CC3)CN[C@H](C(=O)O)C4)nc(N)n2)C(F)(F)F)c1` [Example 34bl, (S)-8-(2-amino-6-((R)-1-(5-chloro-3′-fluoro-5′-isopropoxy-[1,1′-biphenyl]-2-yl)-2,2,2-trifluoroethoxy)pyrimidin-4-yl)-2,8-diazaspiro[4.5]decane-3-carboxylic acid] the IC50 was 50 to 300 nM.
`Cc1cc(-c2cc(Cl)ccc2[C@@H](Oc2cc(N3CCC4(CC3)CN[C@H](C(=O)O)C4)nc(N)n2)C(F)(F)F)cc(C(C)(C)C)c1` [Example 34bm, (S)-8-(2-amino-6-((R)-1-(3′-(tert-butyl)-5-chloro-5′-methyl-[1,1′-biphenyl]-2-yl)-2,2,2-trifluoroethoxy)pyrimidin-4-yl)-2,8-diazaspiro[4.5]decane-3-carboxylic acid] was tested, and the IC50 was 50 to 300 nM.
In the case of `Cc1ccc(-c2cc(Cl)ccc2[C@@H](Oc2cc(N3CCC4(CC3)CN[C@H](C(=O)O)C4)nc(N)n2)C(F)(F)F)cc1F` [Example 34bn, (S)-8-(2-amino-6-((R)-1-(5-chloro-3′-fluoro-4′-methyl-[1,1′-biphenyl]-2-yl)-2,2,2-trifluoroethoxy)pyrimidin-4-yl)-2,8-diazaspiro[4.5]decane-3-carboxylic acid], the IC50 is reported as 50 to 300 nM.
With `CCOc1cc(-c2cc(Cl)ccc2[C@@H](Oc2cc(N3CCC4(CC3)CN[C@H](C(=O)O)C4)nc(N)n2)C(F)(F)F)ccc1F` [Example 34bp, (S)-8-(2-amino-6-((R)-1-(5-chloro-3′-ethoxy-4′-fluoro-[1,1′-biphenyl]-2-yl)-2,2,2-trifluoroethoxy)pyrimidin-4-yl)-2,8-diazaspiro[4.5]decane-3-carboxylic acid] the IC50 was < 50 nM.
`CC(C)c1cc(-c2cc(Cl)ccc2[C@@H](Oc2cc(N3CCC4(CC3)CN[C@H](C(=O)O)C4)nc(N)n2)C(F)(F)F)ccn1` [Example 34bu, (S)-8-(2-amino-6-((R)-1-(4-chloro-2-(2-isopropylpyridin-4-yl)phenyl)-2,2,2-trifluoroethoxy)pyrimidin-4-yl)-2,8-diazaspiro[4.5]decane-3-carboxylic acid] gave an IC50 of 50 to 300 nM.
With `Nc1nc(O[C@H](c2ccc(Cl)cc2-c2ccc(F)cc2)C(F)(F)F)cc(N2CCC3(CC2)CN[C@H](C(=O)O)C3)n1` [Example 34bv, (S)-8-(2-amino-6-((R)-1-(5-chloro-4′-fluoro-[1,1′-biphenyl]-2-yl)-2,2,2-trifluoroethoxy)pyrimidin-4-yl)-2,8-diazaspiro[4.5]decane-3-carboxylic acid] the IC50 was 50 to 300 nM.
`Cc1ccc(-c2cc(Cl)ccc2[C@@H](Oc2cc(N3CCC4(CC3)CN[C@H](C(=O)O)C4)nc(N)n2)C(F)(F)F)cc1` [Example 34bx, (S)-8-(2-amino-6-((R)-1-(5-chloro-4′-methyl-[1,1′-biphenyl]-2-yl)-2,2,2-trifluoroethoxy)pyrimidin-4-yl)-2,8-diazaspiro[4.5]decane-3-carboxylic acid] showed an IC50 of 50 to 300 nM.
`Nc1nc(O[C@H](c2ccc(Cl)cc2C2=CCCCC2)C(F)(F)F)cc(N2CCC3(CC2)CN[C@H](C(=O)O)C3)n1` [Example 34by, (S)-8-(2-amino-6-((R)-1-(5-chloro-2′,3′,4′,5′-tetrahydro-[1,1′-biphenyl]-2-yl)-2,2,2-trifluoroethoxy)pyrimidin-4-yl)-2,8-diazaspiro[4.5]decane-3-carboxylic acid] was tested, and the IC50 was 50 to 300 nM.
Molecule `Nc1nc(O[C@H](c2ccc(Cl)cc2-c2cccc(C(=O)N3CCCC3)c2)C(F)(F)F)cc(N2CCC3(CC2)CN[C@H](C(=O)O)C3)n1` [Example 34ca, (S)-8-(2-amino-6-((R)-1-(5-chloro-3′-(pyrrolidine-1-carbonyl)-[1,1′-biphenyl]-2-yl)-2,2,2-trifluoroethoxy)pyrimidin-4-yl)-2,8-diazaspiro[4.5]decane-3-carboxylic acid] has an IC50 of 50 to 300 nM.
In the case of `Nc1nc(O[C@H](c2ccc(Cl)cc2-c2cccc(OC3CCCC3)c2)C(F)(F)F)cc(N2CCC3(CC2)CN[C@H](C(=O)O)C3)n1` [Example 34cb, (S)-8-(2-amino-6-((R)-1-(5-chloro-3′-(cyclopentyloxy)-[1,1′-biphenyl]-2-yl)-2,2,2-trifluoroethoxy)pyrimidin-4-yl)-2,8-diazaspiro[4.5]decane-3-carboxylic acid], the IC50 is reported as 50 to 300 nM.
`Nc1nc(O[C@H](c2ccc(Cl)cc2-c2cccc(C(=O)NC3CCC(O)CC3)c2)C(F)(F)F)cc(N2CCC3(CC2)CN[C@H](C(=O)O)C3)n1` (stereo partly drawn) [Example 34cc, (S)-8-(2-amino-6-((R)-1-(5-chloro-3′-(((1R,4R)-4-hydroxycyclohexyl)carbamoyl)-[1,1′-biphenyl]-2-yl)-2,2,2-trifluoroethoxy)pyrimidin-4-yl)-2,8-diazaspiro[4.5]decane-3-carboxylic acid] was tested, and the IC50 was 50 to 300 nM.
